“And” between values parts separate entries of the source, which are not always exact repeats. Equal entries are not always repeated. Where two headings read alike, the source gives them in different places.
What was measured:
[1] = relative bioequivalence of aqueous and non-aqueous tablets; format: in vivo, human; conditions: 50 mg
Text: An open-label, single-dose, randomized, two-period, two-treatment, two-sequence, crossover Phase 1 study evaluated the relative bioequivalence of two types of tablets with slightly different composition: aqueous tablet (test) and non-aqueous tablet (reference).

[2] = single rising oral dose Phase 1 pharmacokinetics in healthy subjects; format: in vivo, human; conditions: for AUC(0-t): read-out: AUC0-24
Protocol: All subjects were healthy adults. […] Systemic exposures were greater than dose proportional up to 600 mg.

[3] = drug interaction studies: effect of co-administered medication on vibegron PK; format: in vivo, human
Text: However, these interactions are not expected to be clinically significant.

human plasma proteins = test: plasma protein binding; format: in vitro ADME
healthy subjects = test: maximum MA4 heart rate in multiple-dose Phase 1 study; format: in vivo, human; conditions: Day 14
Protocol: More intensive assessments of heart rate and blood pressure were performed in healthy volunteers in several Phase 1 studies. […] Doses ranged from 25 to 400 mg once daily for 7 to 28 days depending on the cohort. Least squares mean and 90% confidence intervals of maximum change from baseline in moving average of heart rate over 4 hours postdose (MA4 HR) are presented in Table 17.

[4] = dose-Cmax and dose-AUC models / log-log regression and simulations from Phase 1 data; design: species or system human
Protocol: In order to contextualize PK parameters of a 75 mg dose, dose-Cmax and dose-AUC models were created using data from Phase 1 studies.

[5] = single-dose PK in patients with renal impairment; format: in vivo, human; conditions: for CL/F, geometric LS mean / Fe[urine]48 hr, geometric mean: single 100 mg
Text: The relationship between clearance and renal function was modeled using linear regression.

[6] = test system: patients with overactive bladder
Text: A placebo group was included in the main study, and a group that received tolterodine monotherapy was included in the main study and in the extension.

β1-AR = target: T1, β1-AR (Homo sapiens, UniProt P08588); test: competition binding assay, membranes with recombinant β1-AR
T1 construct: expressed in transfected cells; membranes used

patients with OAB = test: Phase 2b vital sign changes (HR, SBP, DBP); format: in vivo, human
Text: None led to discontinuation. The overall incidence of orthostatic symptoms was low.
Small differences in the percent of subjects exceeding categorical heart rate and blood pressure thresholds for vibegron were similar to those in the tolterodine arm.

[7] = male, human, plasma, oral, 50 mg, single 50 mg, healthy young males
[8] = male, human, plasma, oral, 50 mg, single 50 mg, healthy young males, Japanese
[9] = multiple doses of 240 mg or 180 mg diltiazem
[10] = Healthy Matched Control Subjects

T1 sequence (P08588 whole entry): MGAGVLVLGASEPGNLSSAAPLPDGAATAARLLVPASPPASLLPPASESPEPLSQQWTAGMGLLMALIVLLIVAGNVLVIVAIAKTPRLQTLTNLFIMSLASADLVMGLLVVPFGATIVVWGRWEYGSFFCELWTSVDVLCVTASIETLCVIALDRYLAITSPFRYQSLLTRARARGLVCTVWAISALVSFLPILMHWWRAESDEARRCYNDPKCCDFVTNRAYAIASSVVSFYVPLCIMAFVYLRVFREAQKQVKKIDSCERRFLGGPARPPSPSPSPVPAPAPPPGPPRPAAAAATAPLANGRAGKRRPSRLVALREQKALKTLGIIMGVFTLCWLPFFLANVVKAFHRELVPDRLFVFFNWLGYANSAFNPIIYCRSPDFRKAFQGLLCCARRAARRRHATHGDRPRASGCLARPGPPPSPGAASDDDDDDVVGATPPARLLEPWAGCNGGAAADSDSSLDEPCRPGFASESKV

## O=C(Nc1ccc(C[C@@H]2CC[C@H]([C@H](O)c3ccccc3)N2)cc1)[C@@H]1CCc2nccc(=O)n21 [vibegron, (6S)—N-[4-[[(2S,5R)-5-[(R)-hydroxy(phenyl)methyl]pyrrolidin-2-yl]methyl]phenyl]-4-oxo-7,8-dihydro-6H-pyrrolo[1,2-a]pyrimidine-6-carboxamide]
[1]
  AUC0-inf GMR test to reference tablet: 100.2%
  Cmax GMR test to reference tablet: 107.7%
[2]; [7]
  Cmax: 31.7 ± 35 ng/mL
  AUC(0-t): 219 ± 123 ng·h/mL
[2]; [8]
  Cmax: 62.2 ± 20.4 ng/mL
  AUC(0-t): 385 ± 136 ng·h/mL
[2]; male, human, plasma, oral, 50 mg, single 50 mg, healthy young males, Japanese, read-out: AUC0-inf
  AUC(0-inf): 885 ± 241 ng·h/mL
[2]; male, human, plasma, oral, 50 mg, single 50 mg, healthy young males, read-out: AUC0-inf
  AUC(0-inf): 551 ± 262 ng·h/mL
[2]; single 20 mg, healthy young males
  t1/2, harmonic mean ± pseudo SD: 64.2 ± 12.6 h
[2]; single 50 mg, Elderly Male and Female
  t1/2, harmonic mean ± pseudo SD: 92 h and 92.1 ± 15.9 h
[2]; single 50 mg, healthy young males, Japanese
  t1/2, harmonic mean ± pseudo SD: 64.4 ± 8.7 h
[2]; single 100 mg, healthy young males
  t1/2, harmonic mean ± pseudo SD: 72.8 ± 10.8 h
[2]; single 150 mg, healthy young males
  AUC(0-inf): 2270 ± 911 ng·h/mL
[2]; single 200 mg, healthy young males
  t1/2, harmonic mean ± pseudo SD: 75.3 ± 9.1 h
[2]; single 200 mg, healthy young males, Japanese
  t1/2, harmonic mean ± pseudo SD: 58.4 ± 9.0 h
[2]; single 300 mg, healthy young males, Japanese
  t1/2, harmonic mean ± pseudo SD: 59.7 ± 9.2 h
[2]; single 450 mg, healthy young males
  t1/2, harmonic mean ± pseudo SD: 60.0 ± 9.4 h
[3]; in vivo
  effect of Tolterodine ER 4 mg on the pharmacokinetics of vibegron: no effect
[3]; [9]
  GM vibegron AUC0-inf increase: 63%
  GM vibegron Cmax increase: 68%
Human plasma proteins
  bound to human plasma proteins: approximately 49%
  unbound in plasma: 49%
Healthy subjects; 25 mg once daily
  Maximum MA4 HR change from baseline, LS mean: 1.47 bpm
  Maximum MA4 HR, Difference from Placebo: −1.60 bpm
Healthy subjects; 50 mg once daily
  Maximum MA4 HR change from baseline, LS mean: 1.50 bpm
  Maximum MA4 HR, Difference from Placebo: −1.57 bpm
Healthy subjects; 100 mg once daily
  Maximum MA4 HR change from baseline, LS mean: 3.28 bpm
Healthy subjects; 150 mg once daily
  Maximum MA4 HR change from baseline, LS mean: 3.17 bpm
  Maximum MA4 HR, Difference from Placebo: 0.10 bpm
Healthy subjects; 200 mg once daily
  Maximum MA4 HR change from baseline, LS mean: 5.67 bpm
  Maximum MA4 HR, Difference from Placebo: 2.60 bpm
Healthy subjects; 300 mg once daily
  Maximum MA4 HR change from baseline, LS mean: 9.06 bpm
  Maximum MA4 HR, Difference from Placebo: 5.98 bpm
Healthy subjects; 400 mg once daily
  Maximum MA4 HR change from baseline, LS mean: 10.33 bpm
  Maximum MA4 HR, Difference from Placebo: 7.26 bpm
[4]
  AUC of 75 mg lower than 200 mg single dose: ~2 fold
  AUC of 75 mg lower than 400 mg single dose: ~6 fold
  Cmax of 75 mg lower than 200 mg single dose: approximately 3.3 fold
  Cmax of 75 mg lower than 400 mg single dose: ~9.2 fold
  increase in Cmax on increase in dose from 50 to 100 mg: ~3 fold
  reduction in Cmax on decreasing the dose from 100 mg to 75 mg: ~40%
[5]; mild renal impairment
  AUC0-inf higher compared to healthy matched control: 49%
  CLR reduced compared to healthy matched control: 39%
  Cmax higher compared to healthy matched control: 96%
[5]; moderate renal impairment
  AUC0-inf higher compared to healthy matched control: 106%
  CLR reduced compared to healthy matched control: 65%
  Cmax higher compared to healthy matched control: 68%
  mean increase in AUC compared to subjects with normal renal function: 1.6 fold
[5]; severe renal impairment
  AUC0-inf higher compared to healthy matched control: 83%
  CLR reduced compared to healthy matched control: 82%
  Cmax higher compared to healthy matched control: 42%
[5]; [10]
  CL/F, geometric LS mean: 64.9 L/h
  Fe[urine]48 hr, geometric mean: 7.9%
[5]; Mild Renal Impairment
  CL/F, geometric LS mean: 43.6 L/h
  Fe[urine]48 hr, geometric mean: 8.5%
[5]; Moderate Renal Impairment
  CL/F, geometric LS mean: 31.5 L/h
  Fe[urine]48 hr, geometric mean: 5.5%
[5]; Severe Renal Impairment
  CL/F, geometric LS mean: 35.5 L/h
  Fe[urine]48 hr, geometric mean: 2.1%
[5]; slope of linear regression
  CL/F increase per one mL/min/1.73 m^2 increase in eGFR: ~0.8%
[6]; Vibegron 3 mg, N = 144, first 12 weeks
  Accidental overdose, %: (2.1) %
[6]; Vibegron 15 mg, N = 134, first 12 weeks
  Accidental overdose, %: (4.5) %
[6]; Vibegron 50 mg, N = 148, first 12 weeks
  Accidental overdose, %: (2.7) %
[6]; Vibegron 100 mg, N = 261, first 12 weeks
  Accidental overdose, %: (4.2) %
[6]; human, in vivo
  frequency of injuries: 0.9%
β1-AR
  binding to β1-AR: does not bind
Patients with OAB; 50 mg and 100 mg
  SBP and DBP mean changes at Week 1 and mean maximum changes over 8 weeks, difference between placebo and vibegron: < 1 mm Hg
Patients with OAB; 100 mg
  percent of subjects with a change from baseline in DBP >15 mmHg: 1.3%
Patients with OAB; in vivo
  HR mean maximum changes over 8 weeks, difference to placebo: < 2 bpm
Patients with OAB; vibegron 3 mg
  DBP change from baseline, mean (95% CI) Max, week 1 to 8: 5.03 (3.92, 6.15) mm Hg
  DBP change from baseline, mean (95% CI), week 1: −0.37 (−1.69, 0.95) mm Hg
  HR change from baseline, mean (95% CI) maximum, week 1 to 8: 5.57 (4.25, 6.90) bpm
  HR change from baseline, mean (95% CI), week 1: 0.36 (−0.90, 1.62) bpm
  SBP change from baseline, mean (95% CI) maximum, week 1 to 8: 7.14 (5.18, 9.10) mm Hg
  SBP change from baseline, mean (95% CI), week 1: −0.35 (−2.34, 1.65) mm Hg
Patients with OAB; vibegron 15 mg
  DBP change from baseline, mean (95% CI) Max, week 1 to 8: 6.37 (5.20, 7.53) mm Hg
  DBP change from baseline, mean (95% CI), week 1: 0.03 (−1.52, 1.59) mm Hg
  HR change from baseline, mean (95% CI) maximum, week 1 to 8: 6.56 (5.20, 7.92) bpm
  HR change from baseline, mean (95% CI), week 1: 0.35 (−1.15, 1.85) bpm
  SBP change from baseline, mean (95% CI) maximum, week 1 to 8: 8.93 (7.18, 10.67) mm Hg
  SBP change from baseline, mean (95% CI), week 1: −0.34 (−2.46, 1.78) mm Hg
Patients with OAB; vibegron 50 mg
  DBP change from baseline, mean (95% CI) Max, week 1 to 8: 4.19 (3.10, 5.29) mm Hg
  DBP change from baseline, mean (95% CI), week 1: −0.70 (−2.07, 0.67) mm Hg
  HR change from baseline, mean (95% CI) maximum, week 1 to 8: 5.49 (4.28, 6.69) bpm
  HR change from baseline, mean (95% CI), week 1: 0.29 (−0.88, 1.46) bpm
  SBP change from baseline, mean (95% CI) maximum, week 1 to 8: 7.01 (5.31, 8.70) mm Hg
  SBP change from baseline, mean (95% CI), week 1: −0.79 (−2.65, 1.08) mm Hg
Patients with OAB; vibegron 100 mg
  DBP change from baseline, mean (95% CI) Max, week 1 to 8: 4.80 (3.88, 5.72) mm Hg
  DBP change from baseline, mean (95% CI), week 1: −0.69 (−1.72, 0.34) mm Hg
  HR change from baseline, mean (95% CI) maximum, week 1 to 8: 6.12 (5.10, 7.15) bpm
  HR change from baseline, mean (95% CI), week 1: 0.35 (−0.69, 1.38) bpm
  SBP change from baseline, mean (95% CI) maximum, week 1 to 8: 6.51 (5.09, 7.93) mm Hg
  SBP change from baseline, mean (95% CI), week 1: −0.77 (−2.22, 0.68) mm Hg

— patent US12102638B2 (Urovant Sciences GmbH, priority 2017, dated 2024)
